{
  "source": "patent US20100190187A1",
  "about": "“Screening Assays for Antagonists and Analyses of Cardiac Hypertrophy” (The Regents of the University of Michigan Office of …, priority 2006, published 2010)",
  "key": {"HL-1 cells [1]": {"tested_on": "HL-1 cells", "assay": "Immunofluorescence staining of hypertrophy related proteins in HL-1 cells", "type": "cell-based, murine", "conditions": "FIG. 12", "excerpt": "(§1) Immunofluorescent staining of HL-1 cells can be carried out in a method similar to that previously described (Tevosian et al., 1999), except that 0.5% CHAPS (Fisher) can be used instead of Triton X-100. Briefly, HL-1 cells grown on 2-well slides (Lab-Tek) are initially preserved with Sprayfix cytology fixative. To prepare for staining, the slides are washed in EtOH and water, and then briefly washed with PBS. Cells were fixed with cold acetone, rinsed with PBS, and permeabilized by three ten minute washes with 0.5% CHAPS/PBS. Next, the cells are blocked overnight with 5% milk/10% goat serum/PBS. The permeabilization step is then repeated prior to incubation with the primary antibody in 10% goat serum/0.5% CHAPS/PBS with the antibodies and dilutions listed below. After a one-hour incubation with the primary antibodies, the slides are washed three times in the 10% goat serum/0.5% CHAPS/PBS, then three times in 0.5% CHAPS/PBS. Secondary antibodies, as described below, can be incubated for one-hour with 1% BSA/0.5% CHAPS/PBS. After washing with 0.5% CHAPS/PBS the cells are stained for five minutes with 4,6-diamidine-2-phenylidole-dihydrochloride (DAPI Nucleic Acid Stain; Invitrogen) and cover slips are mounted with Prolong Gold anti-fade reagent (Invitrogen). The following antibody combinations can be used: rabbit anti-mouse VDR (sc-1008; Santa Cruz Biotech; 1:100 dilution), rabbit anti-mouse ANP (AB 5490; Chemicon; 1:50 dilution), and rabbit anti-mouse c-myc (sc-764; Santa Cruz Biotech; 1:100 dilution), all followed by FITC conjugated goat anti-rabbit (AP 307F; Chemicon; 1:400). Mouse monoclonal anti-myotrophin (V 11220, BD Transduction Laboratory; 1:50) followed by FITC conjugated goat anti-mouse (F-0257; Sigma; 1:128), and goat anti-mouse calbindin-9 (sc-18038. Santa Cruz Bio; 1:100) followed by FITC conjugated rabbit anti-goat (AP 106F; Chemicon; 1:100). Slides can be analyzed on an Olympus BX 51 immunofluorescence microscope and photomicrographs can be recorded as digital images.\nas §1, with “incubation” for “incubation with the primary antibodies,”, “The following antibody combinations can be used: rabbit anti-mouse VDR (sc-1008; Santa Cruz Biotech; 1:100 dilution), rabbit anti-mouse ANP (AB 5490; Chemicon; 1:50 dilution), and rabbit anti-mouse c-myc (sc-764; Santa Cruz Biotech; 1:100 dilution), all followed by FITC conjugated goat anti-rabbit (AP 307F; Chemicon; 1:400). Mouse monoclonal anti-myotrophin (V 11220, BD Transduction Laboratory; 1:50) followed by FITC conjugated goat anti-mouse (F-0257; Sigma; 1:128), and goat anti-mouse calbindin-9 (sc-18038. Santa Cruz Bio; 1:100) followed by FITC conjugated rabbit anti-goat (AP 106F; Chemicon; 1:100).” left out"}, "HL-1 cells [2]": {"tested_on": "HL-1 cells", "assay": "HL-1 cell growth and proliferation", "type": "cell-based, murine", "conditions": "compared to HL-1 cells incubated with vehicle, FIG. 10", "method": "HL-1 cells are obtained from Dr. W. C. Claycomb, Louisiana State University Medical Center, New Orleans, La. HL-1 cells (passages 55-75) are maintained at 37° C. under a 5% C02/air atmosphere in Claycomb medium (JRL Bioscience) supplemented with 10% fetal bovine serum, 0.29 mg/mL L-glutamine, 100 units/mL penicillin, 100 μg/mL streptomycin (all Gibco), and 0.1 mM norepinephrine (Sigma). The medium can be replaced approximately every 24 hours. HL-1 cells were grown in T25 culture flasks which were precoated overnight with 2 μg/cm fibronectin/0.02% gelatin solution. […]\nHL-1 cells are grown in 10% FCS-supplemented medium or medium supplemented with 1% ITS and treated with either 0.1% EtOH (control vehicle), 1, 10 or 100 nM 1,25(OH) 2D3, 100 nM PMA or 1 mM PMA or 1 mM 24,25(OH) 2D3 or 25(OH)D3 for 2 or 4 days. At each time point the myocytes are removed from the dish using a Trypsin-EDTA solution (Sigma Chemical, St. Louis, Mo.) and counted using a Coulter Counter (Model ZF, Coulter Electronics, Hialeah, Fla.). Protein levels can be determined after 2 days using the Bradford protein assay (14). […] The HL-1 cells can then be examined on a flow cytometer (Coulter Elite, Coulter Electronics, Hialeah, Fla.) and cell cycle distribution can be determined by using MODFIT (v. 5.2)."}},
  "data": [
    {"smiles": "C=C1CC[C@H](O)C/C1=C/C=C1\\CCC[C@]2(C)[C@@H]([C@H](C)CCCC(C)C)CC[C@@H]12", "note": "[Vitamin D3]", "values": [
      {"measurement": "expression of ANP", "setting": "HL-1 cells [1]", "value": "inhibited or reduced the expression"},
      {"measurement": "expression of VDR", "setting": "HL-1 cells [1]", "value": "increased the expression"},
      {"measurement": "expression of c-myc", "setting": "HL-1 cells [1]", "value": "inhibited or reduced the expression"},
      {"measurement": "expression of calbindin 9", "setting": "HL-1 cells [1]", "value": "inhibited or reduced the expression"},
      {"measurement": "expression of myotrophin", "setting": "HL-1 cells [1]", "value": "increased the expression"},
      {"measurement": "inhibition of HL-1 growth / cellular proliferation", "setting": "HL-1 cells [2]", "value": "dose dependent inhibition of cellular proliferation"},
      {"measurement": "inhibition of HL-1 growth / cellular proliferation", "setting": "HL-1 cells [2]; listed as Vit D", "value": "dose dependent inhibition of HL-1 growth"}
    ]}
  ]
}
